For 23 compounds, GI50 and IC50 results are on record in patent US20240208909A1, “SUBSTITUTED QUINOLINE DERIVATIVES HAVING SOS1 INHIBITION ACTIVITIES AND USES THEREOF” (Accutar Biotechnology Inc., priority 2022, published 2024).

One assay relates to K562 cells. Briefly: Cell growth inhibition of K562 cells (CellTiter-Glo). The class given is cell-based. The note with it: Homo sapiens, 120 h, 5 days. A general note: In ATP-based viability assays light output follows the ATP content of the culture.
The test system of assay [1] is Phospho-ERK1/2 in DLD1 cells. Briefly: Phospho-ERK1/2 expression inhibition in DLD1 cells. Format: cell-based. The note with it: Homo sapiens, DLD-1, 4 hours, read-out: DLD1 pERK IC50. The method in brief:
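DLD1 cells (15,000/well) were plated overnight, then exposed to compounds for 4 h at 37 °C. Cells were formaldehyde-fixed and methanol-permeabilized. Phospho-ERK1/2 was detected in-cell with rabbit anti-phospho-ERK1/2 and an IRDye 800CW secondary antibody, imaged on a LI-COR Odyssey.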

The next assay concerns the target SOS1/KRAS-G12D (Homo sapiens (Human), UniProt Q07889). Briefly: SOS1/KRAS-G12D binding inhibition assay (AlphaScreen). The note with it: GST-SOS1 and 6*His KRAS-G12D, read-out: KrasG12D/SOS1 binding IC50. The method in brief: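 GST-SOS1 (5 nM) pre-incubated 30 min with His6-KRAS-G12D (50 nM) in HEPES pH 7.4, NaCl, DTT, MgCl2, Tween-20, BSA; compound in 2% DMSO then added for 30 min at 4° C. GSH donor and Ni-NTA acceptor AlphaScreen beads, 2 h at 4° C; background-corrected % inhibition versus DMSO, IC50 by variable-slope nonlinear regression.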
(In general: In Alpha technology, singlet oxygen from a donor bead excites a nearby acceptor bead.)

SOS1/KRAS-G12D, sequence (Q07889 564-1049 limits assumed): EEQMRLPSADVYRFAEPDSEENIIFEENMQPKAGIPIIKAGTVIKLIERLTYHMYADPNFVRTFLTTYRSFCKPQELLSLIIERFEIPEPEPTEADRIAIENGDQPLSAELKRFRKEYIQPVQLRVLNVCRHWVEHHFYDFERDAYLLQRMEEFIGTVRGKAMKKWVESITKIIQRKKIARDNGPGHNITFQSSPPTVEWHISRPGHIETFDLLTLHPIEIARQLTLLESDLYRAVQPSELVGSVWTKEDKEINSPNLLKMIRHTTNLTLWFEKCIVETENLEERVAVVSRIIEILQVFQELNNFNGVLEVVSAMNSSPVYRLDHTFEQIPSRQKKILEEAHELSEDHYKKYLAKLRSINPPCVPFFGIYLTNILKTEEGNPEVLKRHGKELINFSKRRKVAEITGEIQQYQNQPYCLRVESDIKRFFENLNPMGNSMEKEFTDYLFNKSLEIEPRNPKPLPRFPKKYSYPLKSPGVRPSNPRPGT

In the case of `CN[C@@H]1CCN(c2ccc3nccc(N[C@H](C)c4cccc(C(F)F)c4F)c3c2)C1` [Compound 44, N-((R)-1-(3-(difluoromethyl)-2-fluorophenyl)ethyl)-6-((R)-3-(methylamino)pyrrolidin-1-yl)quinolin-4-amine], the GI50 with K562 cells is not above 100 nM. Besides, the IC50 in assay [1] is more than 500 nM; at SOS1/KRAS-G12D, not above 10 nM.
On the same counts, the results for `CC(=O)N1CCN(c2ccc3nccc(N[C@H](C)c4cccc(C(F)F)c4F)c3c2)CC1` [Compound 12, (R)-1-(4-(4-((1-(3-(difluoromethyl)-2-fluorophenyl)ethyl)amino)quinolin-6-yl)piperazin-1-yl)ethan-1-one] are not above 100 nM, not above 150 nM and not above 10 nM.
In the case of `CC(=O)N1CCN(c2ccc3nccc(N[C@H](C)c4cccc(C(F)(F)F)c4C)c3c2)C[C@H]1C` [Compound 51, 1-((R)-2-methyl-4-(4-(((R)-1-(2-methyl-3-(trifluoromethyl)phenyl)ethyl)amino)quinolin-6-yl)piperazin-1-yl)ethan-1-one], the GI50 in the assay with K562 cells was in the range of 100 to 500 nM. For the same compound, the IC50 was more than 500 nM in assay [1] and 10 to 100 nM on SOS1/KRAS-G12D.
In the assay on K562 cells, `Cc1c([C@@H](C)Nc2ccnc3ccc(N4C[C@@H]5C[C@H]4CO5)cc23)cccc1C(F)(F)F` [Compound 22, 6-((1S,4S)-2-oxa-5-azabicyclo[2.2.1]heptan-5-yl)-N-((R)-1-(2-methyl-3-(trifluoromethyl)phenyl)ethyl)quinolin-4-amine] yielded a GI50 of more than 500 nM. Further, the IC50 was more than 500 nM in assay [1] and more than 100 nM on SOS1/KRAS-G12D.
`Cc1c([C@@H](C)Nc2c(C#N)cnc3ccc(N4CCN(C(=O)C5CCOC5)CC4)cc23)cccc1C(F)(F)F` (stereo partly drawn) [Compound 3, 4-(((R)-1-(2-methyl-3-(trifluoromethyl)phenyl)ethyl)amino)-6-(4-(tetrahydrofuran-3-carbonyl)piperazin-1-yl)quinoline-3-carbonitrile] came in with a GI50 in the assay on K562 cells of more than 500 nM. The IC50 in assay [1] is more than 500 nM; on SOS1/KRAS-G12D, more than 100 nM.
In turn, `CC(=O)N[C@H]1CCN(c2ccc3nccc(N[C@H](C)c4cccc(C(F)(F)F)c4C)c3c2)C1` [Compound 39, N-((S)-1-(4-(((R)-1-(2-methyl-3-(trifluoromethyl)phenyl)ethyl)amino)quinolin-6-yl)pyrrolidin-3-yl)acetamide] showed a GI50 in the assay with K562 cells of more than 500 nM. The IC50 was more than 500 nM in assay [1] and more than 100 nM at SOS1/KRAS-G12D.
`C[C@@H](Nc1ccnc2ccc(N3CC[C@@H](O)C3)cc12)c1cccc(C(F)F)c1F` [Compound 42, (R)-1-(4-(((R)-1-(3-(difluoromethyl)-2-fluorophenyl)ethyl)amino)quinolin-6-yl)pyrrolidin-3-ol] yielded a GI50 in the assay on K562 cells not above 100 nM. Besides, the figures for the IC50 (in assay [1]; on SOS1/KRAS-G12D) were not above 150 nM and not above 10 nM, respectively.
`Cc1c([C@@H](C)Nc2ccnc3ccc(N4C[C@@H](C)NC[C@@H]4C)cc23)cccc1C(F)(F)F` [Compound 56, 6-((2S,5R)-2,5-dimethylpiperazin-1-yl)-N-((R)-1-(2-methyl-3-(trifluoromethyl)phenyl)ethyl)quinolin-4-amine] showed a GI50 with K562 cells of 100 to 500 nM. The IC50 is more than 500 nM in assay [1] and 10 to 100 nM at SOS1/KRAS-G12D.
For `Cc1c([C@@H](C)Nc2ccnc3ccc(N4CCN(C(=O)C5CC5)CC4)cc23)cccc1C(F)(F)F` [Compound 26, (R)-cyclopropyl(4-(4-((1-(2-methyl-3-(trifluoromethyl)phenyl)ethyl)amino)quinolin-6-yl)piperazin-1-yl)methanone], in the assay with K562 cells, the GI50 fell in the range of 100 to 500 nM. The IC50 in assay [1] was more than 500 nM; on SOS1/KRAS-G12D it was 10 to 100 nM.
Consider `Cc1c([C@@H](C)Nc2ccnc3ccc(N4CCN(C(=O)C5COC5)CC4)cc23)cccc1C(F)(F)F` [Compound 29, (R)-(4-(4-((1-(2-methyl-3-(trifluoromethyl)phenyl)ethyl)amino)quinolin-6-yl)piperazin-1-yl)(oxetan-3-yl)methanone], for which, in the assay on K562 cells, the GI50 is 100 to 500 nM. In addition, the IC50 in assay [1] is more than 500 nM; on SOS1/KRAS-G12D, 10 to 100 nM.
Regarding `CNC(=O)N1CC[C@](OC)(c2ccc3nccc(N[C@H](C)c4cccc(C(F)F)c4F)c3c2)C1` [Compound 102, (S)-3-(4-(((R)-1-(3-(difluoromethyl)-2-fluorophenyl)ethyl)amino)quinolin-6-yl)-3-methoxy-N-methylpyrrolidine-1-carboxamide], in the assay on K562 cells, the GI50 is not above 100 nM. The results for the IC50 (in assay [1]; on SOS1/KRAS-G12D) were not above 150 nM and not above 10 nM, respectively.
In the assay with K562 cells, `Cc1c([C@@H](C)Nc2ccnc3ccc(N4CC5CC(C4)N5)cc23)cccc1C(F)(F)F` [Compound 58, 6-(3,6-diazabicyclo[3.1.1]heptan-3-yl)-N-((R)-1-(2-methyl-3-(trifluoromethyl)phenyl)ethyl)quinolin-4-amine] came in with a GI50 of 100 to 500 nM. The IC50 is more than 500 nM in assay [1] and 10 to 100 nM at SOS1/KRAS-G12D.
In the assay on K562 cells, `Cc1c([C@@H](C)Nc2ccnc3ccc(N4CCn5ncnc5C4)cc23)cccc1C(F)(F)F` [Compound 25, (R)-6-(5,6-dihydro-[1,2,4]triazolo[1,5-a]pyrazin-7(8H)-yl)-N-(1-(2-methyl-3-(trifluoromethyl)phenyl)ethyl)quinolin-4-amine] gave a GI50 of 100 to 500 nM. Besides, the IC50 in assay [1] is 150 to 500 nM; at SOS1/KRAS-G12D, more than 100 nM.
On the same counts, the results for `CC(=O)N[C@@H]1CCN(c2ccc3nccc(N[C@H](C)c4cccc(C(F)(F)F)c4C)c3c2)C1` [Compound 38, N-((R)-1-(4-(((R)-1-(2-methyl-3-(trifluoromethyl)phenyl)ethyl)amino)quinolin-6-yl)pyrrolidin-3-yl)acetamide] are more than 500 nM, more than 500 nM and more than 100 nM.
With `Cc1c([C@@H](C)Nc2ccnc3ccc(C4(F)CCN(C(=O)C(C)C)CC4)cc23)cccc1C(F)(F)F` [Compound 82, (R)-1-(4-fluoro-4-(4-((1-(2-methyl-3-(trifluoromethyl)phenyl)ethyl)amino)quinolin-6-yl)piperidin-1-yl)-2-methylpropan-1-one], the GI50 in the assay with K562 cells lay in the range of 100 to 500 nM. The IC50 was more than 500 nM in assay [1] and more than 100 nM at SOS1/KRAS-G12D.
As to `CC(=O)N[C@@H]1CCN(c2ccc3nccc(N[C@H](C)c4cccc(C(F)F)c4F)c3c2)C1` [Compound 11, N-((R)-1-(4-(((R)-1-(3-(difluoromethyl)-2-fluorophenyl)ethyl)amino)quinolin-6-yl)pyrrolidin-3-yl)acetamide], the GI50 with K562 cells was not above 100 nM. Moreover, the IC50 was 150 to 500 nM in assay [1] and 10 to 100 nM on SOS1/KRAS-G12D.
In the case of `CC(=O)N1CC=C(c2ccc3nccc(N[C@H](C)c4cccc(C(F)F)c4F)c3c2)C1` [Compound 97, (R)-1-(3-(4-((1-(3-(difluoromethyl)-2-fluorophenyl)ethyl)amino)quinolin-6-yl)-2,5-dihydro-1H-pyrrol-1-yl)ethan-1-one], in the assay on K562 cells, the GI50 lay within 100 to 500 nM. In addition, the values for the IC50 (in assay [1]; on SOS1/KRAS-G12D) were more than 500 nM and 10 to 100 nM, respectively.
The compound `COC1(c2ccc3nccc(N[C@H](C)c4cccc(C(F)(F)F)c4C)c3c2)CCN(C(=O)CF)CC1` [Compound 78, (R)-2-fluoro-1-(4-methoxy-4-(4-((1-(2-methyl-3-(trifluoromethyl)phenyl)ethyl)amino)quinolin-6-yl)piperidin-1-yl)ethan-1-one] had a GI50 in the assay with K562 cells not above 100 nM. Besides, the IC50 in assay [1] was 150 to 500 nM; at SOS1/KRAS-G12D, not above 10 nM.
For `Cc1cc(N[C@H](C)c2cccc(C(F)(F)F)c2C)c2cc(N3CCN(C(=O)C4CCOC4)CC3)ccc2n1` (stereo partly drawn) [Compound 4, (4-(2-methyl-4-(((R)-1-(2-methyl-3-(trifluoromethyl)phenyl)ethyl)amino)quinolin-6-yl)piperazin-1-yl)(tetrahydrofuran-3-yl)methanone], the GI50 with K562 cells lay within 100 to 500 nM. For the same compound, the values for the IC50 (in assay [1]; on SOS1/KRAS-G12D) were more than 500 nM and 10 to 100 nM, respectively.
Consider `C[C@@H](Nc1ccnc2ccc(N3CC[C@H](O)C3)cc12)c1cccc(C(F)F)c1F` [Compound 43, (S)-1-(4-(((R)-1-(3-(difluoromethyl)-2-fluorophenyl)ethyl)amino)quinolin-6-yl)pyrrolidin-3-ol], for which the GI50 in the assay with K562 cells lay in the range of 100 to 500 nM. In addition, the IC50 in assay [1] is 150 to 500 nM; on SOS1/KRAS-G12D, not above 10 nM.
`COc1cc2nccc(N[C@H](C)c3cccc(C(F)F)c3F)c2cc1C1(OC)CCN(C(C)=O)CC1` [Compound 73, (R)-1-(4-(4-((1-(3-(difluoromethyl)-2-fluorophenyl)ethyl)amino)-7-methoxyquinolin-6-yl)-4-methoxypiperidin-1-yl)ethan-1-one] had a GI50 with K562 cells of more than 500 nM. Moreover, the IC50 in assay [1] is more than 500 nM; on SOS1/KRAS-G12D it was not above 10 nM.
As for `C[C@@H](Nc1ccnc2ccc(N3CC[C@H](N)C3)cc12)c1cccc(C(F)F)c1F` [Compound 18, 6-((S)-3-aminopyrrolidin-1-yl)-N-((R)-1-(3-(difluoromethyl)-2-fluorophenyl)ethyl)quinolin-4-amine], the GI50 in the assay on K562 cells was more than 500 nM. Besides, the results for the IC50 (in assay [1]; at SOS1/KRAS-G12D) were more than 500 nM and 10 to 100 nM, respectively.
Compound `CC(C)C(=O)N1CCC(F)(c2ccc3nccc(N[C@H](C)c4cccc(C(F)F)c4F)c3c2)CC1` [Compound 81, (R)-1-(4-(4-((1-(3-(difluoromethyl)-2-fluorophenyl)ethyl)amino)quinolin-6-yl)-4-fluoropiperidin-1-yl)-2-methylpropan-1-one] had a GI50 with K562 cells not above 100 nM. Besides, the IC50 was not above 150 nM in assay [1] and not above 10 nM at SOS1/KRAS-G12D.

The term GI50 denotes the concentration that inhibits growth by half. Low values mean greater sensitivity of the cells, high ones lower sensitivity of the cells.
